# Article PMC3624605 (Journal of medicinal chemistry, 2013)
# How the values were obtained:
# [1] = tested on: caspase 3/7 activity of BEAS-2B cells; details: 100 nM elastase; 10 μM inhibitor pre-incubation
# BEAS-2B cells [2] = assay: Cell viability; format: cell-based, human; details: for Protection against the antiproliferative effects of elastase: Figure 4C, caspase 3 inhibitor 10 μM pre-incubation
# panel of 68 proteases = details: 10 μM
# BEAS-2B cells [3] = assay: Cell detachment and morphology change; format: cell-based, human; details: for Elastase-induced cell rounding (morphology change): 10 μM cotreatment, 3 h
# [4] = molecular target: Human Pancreatic Chymotrypsin (Homo sapiens, UniProt P17538); assay: In vitro protease assay, human pancreatic chymotrypsin; format: biochemical
# sICAM-1 = details: 6 h cotreatment, culture supernatant
# [5] = tested on: transcript levels in BEAS-2B cells; details: 3 h cotreatment
# [6] = tested on: IκB degradation and p65 nuclear translocation; details: 3 h of cotreatment
# Human Pancreatic Chymotrypsin, sequence (P17538 19-263): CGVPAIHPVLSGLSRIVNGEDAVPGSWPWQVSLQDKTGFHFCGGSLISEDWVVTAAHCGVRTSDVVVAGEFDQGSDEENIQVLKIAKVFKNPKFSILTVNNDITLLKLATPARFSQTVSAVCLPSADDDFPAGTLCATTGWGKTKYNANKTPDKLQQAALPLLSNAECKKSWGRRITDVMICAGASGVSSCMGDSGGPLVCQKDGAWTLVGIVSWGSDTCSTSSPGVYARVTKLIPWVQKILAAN
compound,measurement,setting,value
COC(=O)CC[C@H](NC(=O)[C@H](CC(=O)OC)NC(=O)OCc1ccccc1)C(=O)N[C@H](C(=O)N[C@@H](CC(=O)OC)C(=O)CF)C(C)C,Effect on elastase-induced increase in caspase activation,[1],abrogated
same,Protection against the antiproliferative effects of elastase,BEAS-2B cells [2],partially protected
C/C=C1\NC(=O)[C@@H](NC(=O)[C@H](CCC(N)=O)NC(=O)CCCCC)[C@@H](C)OC(=O)[C@H](C(C)C)NC(=O)[C@H](Cc2ccc(O)cc2)N(C)C(=O)[C@H](Cc2ccccc2)N2C(=O)[C@H](CC[C@H]2O)NC1=O [Lyngbyastatin 7],"Inhibition of the serine proteases elastase, chymotrypsin and proteinase K",panel of 68 proteases,completely inhibiting
CC(C)(C)C(=O)Oc1ccc(S(=O)(=O)Nc2ccccc2C(=O)NCC(=O)O)cc1 [Sivelestat],Elastase-induced cell rounding (morphology change),BEAS-2B cells [3],prevented this effect of elastase
same,Concentration showing cytoprotective effect against cell detachment,BEAS-2B cells [3]; 12 h,100 µM
same,IC50,[4],> 10000 nM
same,Protection against the antiproliferative effects of elastase,BEAS-2B cells [2],partially protected
same,Concentration required to completely negate elastase-induced cytotoxicity,"BEAS-2B cells [2]; elastase co-treatment, 24 h",100 µM
"C/C=C1\NC(=O)[C@@H](NC(=O)[C@@H](NC(=O)[C@@H](COS(=O)(=O)[O-])OC)C(C)C)[C@@H](C)OC(=O)[C@H]([C@H](C)CC)NC(=O)[C@H](Cc2ccccc2)N(C)C(=O)[C@H](Cc2ccccc2)N2C(=O)[C@H](CC[C@H]2O)NC1=O.[Na+] [Symplostatin 5 (1), Symplostatin 5]",Elastase-induced cell rounding (morphology change),BEAS-2B cells [3],prevented this effect of elastase
same,Effect on proliferation of BEAS-2B cells,"BEAS-2B cells [2]; up to 100 μM, with solvent control or 100 nM elastase, 24 h",did not significantly affect the proliferation
same,Concentration that decreased elastase-induced sICAM-1 level,sICAM-1,≥ 1 µM
same,Elastase-induced increase in IL1B transcript levels (RT-qPCR),[5],strongly abrogated
same,Elastase-induced IκB degradation and p65 nuclear translocation,[6],dose-dependently inhibited
elastase: exogenous elastase used to challenge BEAS-2B cells,IC50,"BEAS-2B cells [2]; read-out: Antiproliferative IC50 of elastase (MTT), BEAS-2B, 24 h",77.5 ± 4.9 nM
